The target of one test is T1, GST-hMDM2 (aa1-188) (Homo sapiens, UniProt Q00987).
T1 construct: The amino acid residues 1-188 of human MDM2 were expressed as GST-hMDM2 fusion protein; made in house; host or cells: E. coli
Description: Homogeneous time resolved fluorometry (HTRF assay), hMDM2/p53 interaction. It counts as binding. The following applies: HTRF analysis; GST-hMDM2 (aa1-188) / biotinylated-p53 (aa1-83). How it is done: Residues 1-83 of human p53 were expressed as avitag <TM>-trxa-6×his fusion protein (biotinlabelled p53) in E. coli. Each protein was separated from cell homogenate by affinity chromatography.
Specifically, 10 μL GST-hMDM2 was incubated with 10 uL diluted compound in 10% DMSO for 20 minutes at room temperature. 20 μL biotinlabelled-p53 was added to the mixture of GST-hMDM2 and then incubated at room temperature for 60 min. A 10 μL detection buffer consisting of SA-XLent, anti-GST cavernous compound antibody and KF was added to the reaction solution consisting of GST-hMDM2, biotinlabelled-p53 and the compound and was placed at room temperature to achieve equilibrium and maintained for more than 4 h. The final concentration of DMSO in the reaction solution was 2%. Time resolved fluorescence were measured on a microplate multi label reader. The inhibition percentage was calculated relative to nutlin-3.
In general terms: Time-resolved FRET reads energy transfer from a long-lived donor to a nearby acceptor.

In test [1] the test system is p21 transcripts in SJSA-1 cells. Description: p21 assay (QRT-PCR of p21 transcripts in SJSA-1 cells). It counts as cell-based, human. The following applies: cell assay (SJSA-1 cell), p21 induction, 7 hours incubation. The source says:
Inhibition of the interaction between hMDM2 and p53 results in the activation of the p53 pathway via the stabilization and accumulation of p53. P53 activates the transcription of many genes, one of which is p21<WAFT/CIP1>. To evaluate the potency of hMDM2 inhibitors, quantitative reverse transcription polymerase chain reaction (QRT PCR) was used to measure the level of p21 transcripts of compound related cells relative to that of control cells treated with dimethyl sulfoxide (DMSO).
In the first day, SJSA-1 cells were inoculated into 100 μL growth medium (RPMI1640; 10 mM HEPES; 1 mM sodium pyruvate; 1× penicillin streptomycin glutamine (PSQ) and 10% FBS, all reagents were obtained from Invitrogen) at a density of 3×10^4 cells in 96-well cell culture plate. The cells were cultured overnight at 37° C. and 5% CO2 atmosphere.
In the second day, hMDM2 inhibitor was gradient diluted in DMSO(Sigma-Aldrich; St. Louis, Mo.). 5 μl of each compound dilution were added into 245 μl filtered assay medium (RPMI1640, 10% FBS, 10 mM HEPES, 1 mM sodium pyruvate and 1×PSQ). Or the assay was conducted with the presence of 10% human serum or 10% mouse serum, or without serum. Growth medium was removed from inoculated SJSA-1 cell culture plate and replaced by 100 μL assay medium for each well. Then 100 μL culture medium containing diluted inhibitor was added into each well to a final volume 200 μL. The final concentration of the compound was in the range of 0.049 μm-50 μm by dose titration with DMSO as control. The cells were incubated at 37° C. and 5% CO2 for 7 hours with the presence of inhibitor. When incubation was completed, growth medium was removed from cells and the plate was stored at −80° C.
In the third day, giagen BioRobot Universal workstation was used to purify total RNA from SJSA-1 cells treated with inhibitor and DMSO respectively. The purification procedure herein was according to RNeasy96BioRobot8000 test kit provided by Qiagen, Valencia, Calif.
To measure the level of existing p21 transcripts, QRT-PCR was introduced. The levels of p21, housekeeping genes and glyceraldehyde 3-phosphate dehydrogenase (GAPDH) were determined by the total RNA from each inhibitor- or DMSO-treated well by duplicated test. The QRT-PCR reaction was performed on the Applied Biosystems prism 7900ht instrument using the relative quantitative (ΔΔ Ct) method according to the following cycle conditions: 48° C. for 30 minutes, then 95° C. for 10 minutes, and then was 40 cycles consisting of 95° C. for 15 seconds and 60° C. for 1 minute. The data were analyzed by using Applied Biosystems SDS2.2 software, with GAPDH as inner control and DMSO treated samples as calibrators. SDS2.2 software calculated the relative quantification (RQ) or increased fold of p21 level relative to DMSO control for each treated sample. The maximum (100%) p21 induction fold was defined by the maximum value of the fitting curve of the reference compound. The p21 induction fold of each inhibitor dose tested was converted to a value representing the percentage of the maximum value. XLFit software (ID business solutions, Alameda, Calif.) was used to make dose-response curve to calculate the IC50 transit value of each inhibitor tested.

T1 sequence (Q00987 1-188): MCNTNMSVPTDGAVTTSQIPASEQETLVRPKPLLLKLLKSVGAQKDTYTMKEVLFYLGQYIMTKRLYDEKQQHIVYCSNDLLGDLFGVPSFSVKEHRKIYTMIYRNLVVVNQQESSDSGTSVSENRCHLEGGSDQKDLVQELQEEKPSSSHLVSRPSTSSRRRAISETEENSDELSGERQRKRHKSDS

As to `C=CC(=O)N=[S@@](=O)(C[C@H](C(C)C)N1C(=O)[C@@](C)(CC(=O)O)C[C@H](c2cccc(Cl)c2)[C@H]1c1ccc(Cl)cc1)C(C)C` [Compound 041], the half-inhibitory concentration (IC50) is 10 to 100 nM against GST-hMDM2 (aa1-188) and under 1000 nM in test [1] (Homo sapiens, SJSA-1, 7 h).
For `CC(C)[C@@H](CS(=N)(=O)C(C)C)N1C(=O)[C@@](C)(CC(=O)NS(=O)(=O)c2ccc(F)cc2)C[C@H](c2cccc(Cl)c2)[C@H]1c1ccc(Cl)cc1` (stereo partly drawn) [Compound 022] the same measures were 10 to 100 nM and 1000 to 10000 nM.
Take `COc1ccc(S(=O)(=O)NC(=O)C[C@@]2(C)C[C@H](c3cccc(Cl)c3)[C@@H](c3ccc(Cl)cc3)N([C@H](CS(=N)(=O)C(C)C)C(C)C)C2=O)cc1` (stereo partly drawn) [Compound 023]: the IC50 is 10 to 100 nM against GST-hMDM2 (aa1-188) and under 1000 nM in test [1] (Homo sapiens, SJSA-1, 7 h).
For `CC(C)[C@@H](CS(=N)(=O)C(C)C)N1C(=O)[C@@](C)(CC(=O)NS(=O)(=O)C2(C)CC2)C[C@H](c2cccc(Cl)c2)[C@H]1c1ccc(Cl)cc1` (stereo partly drawn) [Compound 019] the same measures were 10 to 100 nM and 1000 to 10000 nM.
Take `CC(C)[C@@H](CS(=O)(=O)C(C)C)N1C(=O)[C@@](C)(CC(=O)NS(=N)(=O)C2CC2)C[C@H](c2cccc(Cl)c2)[C@H]1c1ccc(Cl)cc1` (stereo partly drawn) [Compound 025]: the IC50 on GST-hMDM2 (aa1-188) fell in the range of 10 to 100 nM; in test [1] (Homo sapiens, SJSA-1, 7 h), 1000 to 10000 nM.
As to `CC(C)[C@@H](CS(=N)(=O)C(C)C)N1C(=O)[C@@](C)(CC(=O)O)C[C@H](c2cccc(Cl)c2)[C@H]1c1ccc(Cl)cc1` (stereo partly drawn) [Compound 002], the half-inhibitory concentration (IC50) is under 10 nM against GST-hMDM2 (aa1-188) and under 1000 nM in test [1].
With `CC(C)[C@@H](CS(=N)(=O)C(C)C)N1C(=O)[C@@](C)(CC(=O)NS(=O)(=O)c2ccccc2)C[C@H](c2cccc(Cl)c2)[C@H]1c1ccc(Cl)cc1` (stereo partly drawn) [Compound 020], the IC50 is 10 to 100 nM at GST-hMDM2 (aa1-188) and 1000 to 10000 nM in test [1] (Homo sapiens, SJSA-1, 7 h).
The matching figures for `COc1cc(NC(=O)C[C@@]2(C)C[C@H](c3cccc(Cl)c3)[C@@H](c3ccc(Cl)cc3)N([C@H](CS(=O)(=NC(=O)N(C)C)C(C)C)C(C)C)C2=O)ccc1C(=O)O` (stereo partly drawn) [Compound 049]: under 10 nM and under 1000 nM.
In the case of `Cc1ccc(S(=O)(=O)NC(=O)C[C@@]2(C)C[C@H](c3cccc(Cl)c3)[C@@H](c3ccc(Cl)cc3)N([C@H](CS(=N)(=O)C(C)C)C(C)C)C2=O)cc1` (stereo partly drawn) [Compound 021], the IC50 on GST-hMDM2 (aa1-188) lay within 10 to 100 nM; in test [1] (Homo sapiens, SJSA-1, 7 h), 1000 to 10000 nM.
As for `CCN=S(=O)(C[C@H](C(C)C)N1C(=O)[C@@](C)(CC(=O)O)C[C@H](c2cccc(Cl)c2)[C@H]1c1ccc(Cl)cc1)C(C)C` (stereo partly drawn) [Compound 035], the half-maximal inhibitory concentration (IC50) was under 10 nM against GST-hMDM2 (aa1-188) and under 1000 nM in test [1] (Homo sapiens, SJSA-1, 7 h).
For `CN=S(=O)(C[C@H](C(C)C)N1C(=O)[C@@](C)(CC(=O)O)C[C@H](c2cccc(Cl)c2)[C@H]1c1ccc(Cl)cc1)C(C)C` (stereo partly drawn) [Compound 003, 2-((3R,5R,6S)-5-(3-chlorophenyl)-6-(4-chlorophenyl)-3-methyl-1-((2S)-3-methyl-1-(N-methyl-2-propylsulfonamido)butyl-2-)-2-oxo-piperidine-3-yl)acetic acid] the same measures were under 10 nM and under 1000 nM.
For `CC(C)[C@@H](CS(=O)(=NC(N)=O)C(C)C)N1C(=O)[C@@](C)(CC(=O)O)C[C@H](c2cccc(Cl)c2)[C@H]1c1ccc(Cl)cc1` (stereo partly drawn) [Compound 034] the same measures were under 10 nM and under 1000 nM.
In the case of `CC(C)[C@@H](CS(=O)(=NC(=O)N(C)C)C(C)C)N1C(=O)[C@@](C)(CC(=O)O)C[C@H](c2cccc(Cl)c2)[C@H]1c1ccc(Cl)cc1` (stereo partly drawn) [Compound 045], the IC50 against GST-hMDM2 (aa1-188) was under 10 nM; in test [1] (Homo sapiens, SJSA-1, 7 h), under 1000 nM.
For `COc1cc(NC(=O)C[C@@]2(C)C[C@H](c3cccc(Cl)c3)[C@@H](c3ccc(Cl)cc3)N([C@H](CS(=O)(=NC(=O)N3CCOCC3)C(C)C)C(C)C)C2=O)ccc1C(=O)O` (stereo partly drawn) [Compound 050], the concentration for half-maximal inhibition (IC50) at GST-hMDM2 (aa1-188) is under 10 nM; in test [1] (Homo sapiens, SJSA-1, 7 h), under 1000 nM.
For `CC(C)[C@@H](CS(=N)(=O)C(C)C)N1C(=O)[C@@](C)(CC(=O)Nc2ccccc2)C[C@H](c2cccc(Cl)c2)[C@H]1c1ccc(Cl)cc1` (stereo partly drawn) [Compound 015] the same measures were 10 to 100 nM and 1000 to 10000 nM.
Regarding `CC(C)[C@@H](CS(=N)(=O)C(C)C)N1C(=O)[C@@](C)(CC(=O)Nc2cccc(C(F)(F)F)c2)C[C@H](c2cccc(Cl)c2)[C@H]1c1ccc(Cl)cc1` (stereo partly drawn) [Compound 016], the concentration for half-maximal inhibition (IC50) against GST-hMDM2 (aa1-188) is over 100 nM; in test [1] (Homo sapiens, SJSA-1, 7 h), 1000 to 10000 nM.
For `CC(C)[C@@H](CS(=N)(=O)C(C)C)N1C(=O)[C@@](C)(CC(=O)O)C[C@H](c2cccc(Cl)c2)[C@H]1c1ccc(Cl)cc1` (stereo partly drawn) [Compound 001] the same measures were under 10 nM and under 1000 nM.
As to `Cc1c(Br)cccc1NC(=O)C[C@@]1(C)C[C@H](c2cccc(Cl)c2)[C@@H](c2ccc(Cl)cc2)N([C@H](CS(=N)(=O)C(C)C)C(C)C)C1=O` (stereo partly drawn) [Compound 013], the half-maximal inhibitory concentration (IC50) was over 100 nM at GST-hMDM2 (aa1-188) and 1000 to 10000 nM in test [1] (Homo sapiens, SJSA-1, 7 h).
For `CC(C)[C@@H](CS(=O)(=NC#N)C(C)C)N1C(=O)[C@@](C)(CC(=O)O)C[C@H](c2cccc(Cl)c2)[C@H]1c1ccc(Cl)cc1` (single isomer, unassigned) [Compound 006] the same measures were under 10 nM and under 1000 nM.
Take `COc1cc(C(=O)O)ccc1NC(=O)C[C@@]1(C)C[C@H](c2cccc(Cl)c2)[C@@H](c2ccc(Cl)cc2)N([C@H](CS(=N)(=O)C(C)C)C(C)C)C1=O` (stereo partly drawn) [Compound 009]: the concentration for half-maximal inhibition (IC50) against GST-hMDM2 (aa1-188) was under 10 nM; in test [1] (Homo sapiens, SJSA-1, 7 h), 1000 to 10000 nM.
On to `CC(=O)N=[S@@](=O)(C[C@H](C(C)C)N1C(=O)[C@@](C)(CC(=O)O)C[C@H](c2cccc(Cl)c2)[C@H]1c1ccc(Cl)cc1)C(C)C` [Compound 039], for which the half-maximal inhibitory concentration (IC50) is under 10 nM at GST-hMDM2 (aa1-188) and under 1000 nM in test [1] (Homo sapiens, SJSA-1, 7 h).
Take `COc1cc(NC(=O)C[C@@]2(C)C[C@H](c3cccc(Cl)c3)[C@@H](c3ccc(Cl)cc3)N([C@H](CS(=O)(=NC(N)=O)C(C)C)C(C)C)C2=O)ccc1C(=O)O` (stereo partly drawn) [Compound 043]: the IC50 at GST-hMDM2 (aa1-188) is under 10 nM; in test [1] (Homo sapiens, SJSA-1, 7 h) it was under 1000 nM.
The matching figures for `CC(C)[C@@H](CS(=N)(=O)C(C)C)N1C(=O)[C@@](C)(CC(=O)Nc2ccc(F)cc2Br)C[C@H](c2cccc(Cl)c2)[C@H]1c1ccc(Cl)cc1` (stereo partly drawn) [Compound 014]: over 100 nM and 1000 to 10000 nM.
For `CC(C)[C@@H](CS(=N)(=O)C(C)C)N1C(=O)[C@@](C)(CC(=O)NC23CCC(C(=O)O)(CC2)CC3)C[C@H](c2cccc(Cl)c2)[C@H]1c1ccc(Cl)cc1` (stereo partly drawn) [Compound 010] the same measures were 10 to 100 nM and 1000 to 10000 nM.
Regarding `CC(C)[C@@H](CS(=N)(=O)C(C)C)N1C(=O)[C@@](C)(CC(=O)N[C@H]2CC[C@H](O)CC2)C[C@H](c2cccc(Cl)c2)[C@H]1c1ccc(Cl)cc1` (stereo partly drawn) [Compound 011], the IC50 against GST-hMDM2 (aa1-188) lay in the range of 10 to 100 nM; in test [1] (Homo sapiens, SJSA-1, 7 h), 1000 to 10000 nM.
`CC(C)[C@@H](CS(=O)(=NC(=O)N1CCCC1)C(C)C)N1C(=O)[C@@](C)(CC(=O)O)C[C@H](c2cccc(Cl)c2)[C@H]1c1ccc(Cl)cc1` (stereo partly drawn) [Compound 047]: the IC50 on GST-hMDM2 (aa1-188) was under 10 nM; in test [1] (Homo sapiens, SJSA-1, 7 h), under 1000 nM.
The matching figures for `CC(C)[C@@H](CS(=N)(=O)C(C)C)N1C(=O)[C@@](C)(CC(=O)Nc2ccc(C(=O)O)cc2)C[C@H](c2cccc(Cl)c2)[C@H]1c1ccc(Cl)cc1` (stereo partly drawn) [Compound 007]: under 10 nM and 1000 to 10000 nM.

The IC50 is the midpoint of a concentration-inhibition curve.
